Measurements reported in patent US20060073121A1, “Spray formulation for pungency enhancement in Capsicum” (priority 2004, published 2006).

Tested on: Capsicum frutescens Mill
Experiment: Spray of abiotic elicitors to flowers of field-grown plants; HPLC of phenyl propanoid intermediates and capsaicinoids in harvested fruits
Type: in vivo
Source text: The seedlings of Capsicum frutescens Mill were raised in soil bed. The seeds of C. frutescens were collected from wild from BR Hills, […]. The 2 months old seedling plants were transplanted to the soil and grown under controlled conditions to avoid cross-pollination after the onset of flowering. The plants were established well 2 months after transplantation and started to flower by 90 days with proper agronomic practices with regard to irrigation, fertilizer application, weeding and care from major pests and diseases. The abiotic elicitor (Methyl Jasmonate) was purchased from Duchefa Pvt.LTD. Methyl Jasmonate stock solution was prepared and later used at different concentrations (1 mM, 2.5 mM and 5 mM) for spraying to the whole plant containing flowers, completely opened flowers, and braches containing flowers. The flowers of C. frutescens were sprayed with water, which was taken as control. […] The extracted samples were centrifuged at 4000 rpm for 10 minutes. The samples were subjected to High Performance Liquid Chromatography for quantification of phenyl proponoid intermediates and major Capsaicinoids. […] The detection was at 236 nm and flow rate was maintained at 1 ml/min. […] The reagent used was of HPLC grade. The intermediates of phenyl proponoid pathway (Phenylalanine, Cinnamic acid, Coumaric acid, Caffeic acid, Ferulic acid and Vanillylamine) and two major Capsaicinoids (Capsaicin and Dihydrocapsaicin) were purchased from Sigma Co. […] Standard deviation of samples was calculated according to Tukey's method. The seedlings of Capsicum frutescens Mill were raised in soil bed. The seeds of C. frutescens were collected from BR. Hills, […]. The 2 months old seedling plants were transplanted to the soil and grown under controlled conditions to avoid cross-pollination after the onset of flowering. The plants were established well two months after transplantation and started to flower by 90 days with proper agronomic practices with regard to irrigation, fertilizer application, weeding and care from major pests and diseases. […] USA. […] The flowers of C. frutescens were sprayed with water, which was taken as control. […] The extracted samples were centrifuged at 4000 rpm for 10 minutes. The samples were subjected to High Performance Liquid Chromatography for quantification of phenyl proponoid intermediates and major Capsaicinoids. […] The detection was at 236nm and flow rate was maintained at 1 ml/min. […] The reagent used was of HPLC grade. The intermediates of phenyl propanoid pathway (Phenylalanine, Cinnamic acid, Coumaric acid, Caffeic acid, Ferulic acid and Vanillylamine) and two major Capsaicinoids (Capsaicin and Dihydrocapsaicin) were purchased from Sigma Co. […] Standard deviation of samples was calculated according to Tukey's method.

[1] = fruits 25 days after anthesis, 1 mM sprayed
[2] = fruits 25 days after anthesis, 2.5 mM sprayed
[3] = fruits 25 days after anthesis, 5 mM sprayed
[4] = fruits 30 days after anthesis, 1 mM sprayed
[5] = fruits 30 days after anthesis, 2.5 mM sprayed
[6] = fruits 30 days after anthesis, 5 mM sprayed
[7] = fruits 35 days after anthesis, 1 mM sprayed
[8] = fruits 35 days after anthesis, 2.5 mM sprayed
[9] = fruits 35 days after anthesis, 5 mM sprayed
[10] = fruits 40 days after anthesis, 1 mM sprayed
[11] = fruits 40 days after anthesis, 2.5 mM sprayed
[12] = fruits 40 days after anthesis, 5 mM sprayed

With `CC/C=C\CC1C(=O)CCC1CC(=O)OC` (centres unmarked) [Methyl Jasmonate] the “Caffeic Acid level” value [1] was 3 ± 0.9 µM, the Capsaicin level [1] was 17 ± 1.8 µM and the “Cinnamic Acid level” value [1] was 10 ± 1.0 µM. For the same molecule, the “Coumaric Acid level” value [1] was 44 ± 3.2 µM, the Dihydrocapsaicin level [1] was 5 ± 0.8 µM and the “Ferulic Acid level” value [1] was 33 ± 1.9 µM. The Phenylalanine level [1] was 388 ± 8.2 µM, the Vanillylamine level [1] was 49 ± 3.4 µM and the “Caffeic Acid level” value [2] was 3 ± 0.8 µM. The Capsaicin level [2] was 18 ± 1.2 µM, the “Cinnamic Acid level” value [2] was 11 ± 0.8 µM and the “Coumaric Acid level” value [2] was 45 ± 3.8 µM. For the same molecule, the Dihydrocapsaicin level [2] was 6 ± 0.5 µM, the “Ferulic Acid level” value [2] was 49 ± 2.5 µM and the Phenylalanine level [2] was 424 ± 9.2 µM. For the same molecule, the Vanillylamine level [2] was 63 ± 4.5 µM, the “Caffeic Acid level” value [3] was 3 ± 0.6 µM and the Capsaicin level [3] was 16 ± 1.4 µM. The “Cinnamic Acid level” value [3] was 9 ± 0.8 µM, the “Coumaric Acid level” value [3] was 42 ± 3.9 µM and the Dihydrocapsaicin level [3] was 7 ± 0.8 µM. For the same molecule, the “Ferulic Acid level” value [3] was 48 ± 3.4 µM, the Phenylalanine level [3] was 391 ± 10.0 µM and the Vanillylamine level [3] was 42 ± 2.9 µM. For the same molecule, the “Caffeic Acid level” value [4] was 4 ± 1.1 µM, the Capsaicin level [4] was 41 ± 3.5 µM and the “Cinnamic Acid level” value [4] was 12 ± 0.9 µM. For the same molecule, the “Coumaric Acid level” value [4] was 38 ± 3.4 µM, the Dihydrocapsaicin level [4] was 13 ± 1.0 µM and the “Ferulic Acid level” value [4] was 68 ± 5.4 µM. For the same molecule, the Phenylalanine level [4] was 563 ± 12.2 µM, the Vanillylamine level [4] was 61 ± 5.4 µM and the “Caffeic Acid level” value [5] was 12 ± 1.2 µM. The Capsaicin level [5] was 48 ± 3.6 µM, the “Cinnamic Acid level” value [5] was 35 ± 2.1 µM and the “Coumaric Acid level” value [5] was 47 ± 4.2 µM. For the same molecule, the Dihydrocapsaicin level [5] was 14 ± 0.9 µM, the “Ferulic Acid level” value [5] was 80 ± 4.5 µM and the Phenylalanine level [5] was 649 ± 8.7 µM. The Vanillylamine level [5] was 96 ± 6.9 µM, the “Caffeic Acid level” value [6] was 10 ± 0.9 µM and the Capsaicin level [6] was 48 ± 6.8 µM. For the same molecule, the “Cinnamic Acid level” value [6] was 27 ± 1.8 µM, the “Coumaric Acid level” value [6] was 45 ± 3.8 µM and the Dihydrocapsaicin level [6] was 13 ± 0.7 µM. For the same molecule, the “Ferulic Acid level” value [6] was 73 ± 4.5 µM, the Phenylalanine level [6] was 627 ± 7.4 µM and the Vanillylamine level [6] was 58 ± 5.1 µM. For the same molecule, the “Caffeic Acid level” value [7] was 12 ± 1.2 µM, the Capsaicin level [7] was 36 ± 3.8 µM and the “Cinnamic Acid level” value [7] was 23 ± 1.5 µM. The “Coumaric Acid level” value [7] was 44 ± 4.2 µM, the Dihydrocapsaicin level [7] was 15 ± 1.2 µM and the “Ferulic Acid level” value [7] was 122 ± 8 µM. For the same molecule, the Phenylalanine level [7] was 879 ± 5.9 µM, the Vanillylamine level [7] was 111 ± 10.8 µM and the “Caffeic Acid level” value [8] was 37 ± 3.2 µM. For the same molecule, the “Cinnamic Acid level” value [8] was 68 ± 4.5 µM, the “Coumaric Acid level” value [8] was 84 ± 4.1 µM and the Dihydrocapsaicin level [8] was 19 ± 1.3 µM. For the same molecule, the “Ferulic Acid level” value [8] was 150 ± 8 µM, the Phenylalanine level [8] was 1052 ± 11 µM and the Vanillylamine level [8] was 107 ± 10.2 µM. For the same molecule, the “Caffeic Acid level” value [9] was 20 ± 1.2 µM, the Capsaicin level [9] was 35 ± 2.9 µM and the “Cinnamic Acid level” value [9] was 36 ± 3.2 µM. The “Coumaric Acid level” value [9] was 59 ± 3.8 µM, the Dihydrocapsaicin level [9] was 12 ± 1.0 µM and the “Ferulic Acid level” value [9] was 121 ± 12 µM. The Phenylalanine level [9] was 921 ± 8.9 µM, the Vanillylamine level [9] was 73 ± 7.1 µM and the “Caffeic Acid level” value [10] was 9 ± 0.8 µM. For the same molecule, the Capsaicin level [10] was 33 ± 2.4 µM, the “Cinnamic Acid level” value [10] was 14 ± 1.2 µM and the “Coumaric Acid level” value [10] was 39 ± 1.9 µM. The Dihydrocapsaicin level [10] was 15 ± 1.2 µM, the “Ferulic Acid level” value [10] was 107 ± 11 µM and the Phenylalanine level [10] was 516 ± 8.4 µM. The Vanillylamine level [10] was 78 ± 6.8 µM, the “Caffeic Acid level” value [11] was 15 ± 1.2 µM and the Capsaicin level [11] was 42 ± 3.2 µM. The “Cinnamic Acid level” value [11] was 23 ± 1.9 µM, the “Coumaric Acid level” value [11] was 73 ± 2.4 µM and the Dihydrocapsaicin level [11] was 18 ± 1.4 µM. The “Ferulic Acid level” value [11] was 114 ± 12 µM, the Phenylalanine level [11] was 584 ± 9.2 µM and the Vanillylamine level [11] was 98 ± 5.8 µM. For the same molecule, the “Caffeic Acid level” value [12] was 13 ± 1.3 µM, the Capsaicin level [12] was 28 ± 3.8 µM and the “Cinnamic Acid level” value [12] was 20 ± 1.5 µM. The “Coumaric Acid level” value [12] was 44 ± 4.1 µM, the Dihydrocapsaicin level [12] was 11 ± 1.3 µM and the “Ferulic Acid level” value [12] was 67 ± 4.5 µM. It also gave a Phenylalanine level [12] of 547 ± 7.4 µM and a Vanillylamine level [12] of 61 ± 5.1 µM.
